According to patent publication US20230381148A1, “HDAC6 INHIBITORS FOR TREATMENT OF METABOLIC DISEASE AND HFPEF” (Tenaya Therapeutics, Inc., priority 2021, published 2023):

Test system: HFD/L-NAME mice
Assay: HFD/L-NAME HFpEF mouse model, TYA-11018 versus Empagliflozin for 9 weeks
Format: in vivo
Settings: TYA-11018 15 mg/kg, Empagliflozin 10 mg/kg
Method: After HFpEF phenotypes were established, mice received 15 mg/kg TYA-11018 or 10 mg/kg Empagliflozin, or vehicle orally once daily for 9 weeks. Health monitoring was performed weekly with body weights recorded. Glucose tolerance test was performed after 1st dose. Cardiac function was recorded by echocardiography after treatment for 9 weeks. End diastolic pressure (EDP) was measured by PV-Loop at terminal at 9 weeks after dosing.
Animals: Cohort of mice with established HFpEF phenotypes and age/sex matched wild type controls were used for dosing study. […] After acclimation for 1 week, one group of mice was fed with high fat diet containing 0.07% L-NAME (LabDiet 5G5V, St Louis, MO) for 15 weeks. The control group of mice were fed with normal chow (LabDiet 5053, St Louis, MO). […] Animals were housed in an animal research facility in accordance with the National Research Council of the National Academies guidelines for the care and use of laboratory animals.
A second group of mice was fed with standard chow for controls.
Transthoracic echocardiography was performed using a VisualSonics Vevo 2100 system equipped with MS400 transducer (Visual Sonics, Toronto, ON). LVEF and other indices of systolic function were obtained from short-axis M-mode scans at the midventricular level, as indicated by the presence of papillary muscles, in conscious, gently restrained mice. […]
Intraperitoneal glucose-tolerance tests were performed by injection of glucose (2 g/kg in saline) after 6 hour fasting (from 7 a.m. to 1 p.m.). Tail blood glucose levels (mg/dL) were measured by AimStrip Plus blood glucose strips used with the AimStrip Plus blood glucose monitoring system (Germaine Laboratories, San Antonio, TX) at 0 (baseline, before glucose dose), 15, 30, 45, 60 and 120 minutes after glucose administration.
The trachea was exposed by a midline incision from the base of the throat to just above the clavicle. […] The hemodynamic parameters were then recorded in close-chest mode. […]

Question: With `OC[C@H]1O[C@@H](c2ccc(Cl)c(Cc3ccc(O[C@H]4CCOC4)cc3)c2)[C@H](O)[C@@H](O)[C@@H]1O` [Empagliflozin, empagliflozin] as the compound, how does the E/A ratio read?
Answer: decreased

Question: What about the “E/e′ ratio” value of the same compound?
Answer: decreased

Question: And the end diastolic pressure?
Answer: reduced end diastolic pressure
